Results published in patent publication US20210255193A1, “LYSINE REACTIVE PROBES AND USES THEREOF” (The Scripps Research Institute, priority 2017, published 2021).

How the values were obtained:
[1] = target: T1, WARS Tryptophan--tRNA ligase, cytoplasmic (Homo sapiens, UniProt P23381); assay: competitive isoTOP-ABPP; assay type: binding; settings: for isoTOP-ABPP ratio (R) at liganded lysine P23381_K256: 50 uM, in vitro, sol, 231
T1 construct: isoTOP-ABPP experiments performed in cell lysates (in vitro); endogenous in cells; host or cells: soluble proteome of human cancer cell lines (MDA-MB-231; Ramos and Jurkat also prepared)
T1 sequence (P23381 1-471): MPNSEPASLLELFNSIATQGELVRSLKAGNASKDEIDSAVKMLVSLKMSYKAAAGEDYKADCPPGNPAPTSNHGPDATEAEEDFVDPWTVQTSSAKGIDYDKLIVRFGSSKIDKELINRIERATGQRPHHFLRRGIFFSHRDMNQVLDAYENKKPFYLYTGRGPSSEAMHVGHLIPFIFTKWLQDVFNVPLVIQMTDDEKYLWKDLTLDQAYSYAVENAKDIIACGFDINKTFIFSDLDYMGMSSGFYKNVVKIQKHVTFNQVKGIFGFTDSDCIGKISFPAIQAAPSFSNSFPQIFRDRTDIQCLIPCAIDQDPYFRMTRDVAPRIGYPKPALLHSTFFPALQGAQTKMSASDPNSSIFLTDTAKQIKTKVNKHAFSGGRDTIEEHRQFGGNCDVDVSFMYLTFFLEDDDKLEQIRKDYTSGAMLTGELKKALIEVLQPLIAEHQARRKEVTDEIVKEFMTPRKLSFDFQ
Protocol: (§1) In vitro covalent fragment treatment for isoTOP-ABPP. All compounds were made up as solutions in DMSO (100×) and were used at a final concentration of 50 μM for activated esters and 100 μM for guanidinylating agents. For each profiling sample, 0.5 ml of lysate was treated with 5 μl of the 100× compound stock solution or 5 μl of DMSO. Samples were treated with activated esters for
(§2) STP-alkyne labeling and click chemistry. For concentration-dependent reactivity measurements by isoTOP-ABPP, 0.5 ml proteome aliquots were treated at ambient temperature with 1 mM STP-alkyne 1 (5 μl of 100 mM stock in DMSO) and 0.1 mM STP alkyne 1 (5 μl of 10 mM stock in DMSO), respectively. For competitive isoTOP-ABPP, after in vitro fragment treatment (detailed above), the samples were labeled for 1 h at ambient temperature with 0.1 mM STP-alkyne 1 (5 μl of 10 mM stock in DMSO). Samples were conjugated by copper-mediated azide-alkyne cycloaddition (CuAAC) to either the light (1 mM STP-alkyne or fragment treated) or heavy (0.1 mM STP-alkyne or DMSO treated) TEV tags (10 μl of 5 mM stocks in DMSO, final concentration=100 μM) using tris(2-carboxyethyl)phosphine hydrochloride
(§3) R value calculation and processing. The ratios of light and heavy MS1 peaks for each unique peptide were quantified with a CIMAGE software using default parameters (3 MS1 acquisitions per peak and signal to noise threshold set to 2.5). For reactivity measurements by isoTOP-ABPP, the R value was calculated from the ratio of MS1 peak areas, comparing the 1 mM STP alkyne sample (light TEV tag) with the 0.1 mM STP alkyne sample (heavy TEV tag). For competitive isoTOP-ABPP, the R value was calculated from the ratio of MS1 peak areas, comparing the DMSO treated sample (heavy TEV tag) with the compound treated sample (light TEV tag). […] Ratios for unique peptide entries are calculated for each experiment; overlapping peptides with the same modified lysine (for example, different charge states, MudPIT chromatographic steps or tryptic termini) are grouped together and the median ratio is reported as the final ratio (R). The peptide ratios reported by CIMAGE were further filtered to ensure the removal or correction of low-quality ratios in each individual data set. The quality filters applied were the following: removal of half tryptic peptides; for ratios with high standard deviations from the median (90% of the median or above) the lowest ratio was taken instead of the median; removal of peptides with R=20 and only a single MS2 event triggered during the elution of the parent ion; manual annotation of all the peptides with ratios of 20, removing any peptides with low quality elution profiles that remained after the previous curation steps (only done for competitive isoTOP-ABPP).
(§4) Cross-data processing for fragment screening. For compound treated samples, biological replicates of the same condition were averaged, if the standard deviation was below 60% of the mean; otherwise, for lysines with at least one R value <4 for a particular compound, the lowest value of the ratio set was taken. For lysines, where all R values for a particular compound were ≥4, the average was reported. For peptides containing several possible modified lysines, the lysine with the highest number of quantification events was used for analysis and the remaining, redundant peptides were reported as alternative modification sites. Peptides included in the aggregate dataset (those used for further bioinformatics and statistical analyses) were required to have been quantified in 2 experiments for competitive isoTOP-ABPP. Lysines were categorized as liganded, if they had at least one ratio R≥4 (hit fragments). For liganded lysines with R=20 for all liganding events, lysines were required to have been quantified with R=20 in two separate experiments and were further required to have been quantified with R<20 in one additional experiment.

[2] = target: T2, AGFG1 Arf-GAP domain and FG repeat-containing protein 1 (Homo sapiens, UniProt P52594); assay: competitive isoTOP-ABPP; assay type: binding; settings: for isoTOP-ABPP ratio (R) at liganded lysine P52594_K134: 50 uM, in vitro, sol, 231
T2 construct: isoTOP-ABPP experiments performed in cell lysates (in vitro); endogenous in cells; host or cells: soluble proteome of human cancer cell lines (MDA-MB-231, Ramos, Jurkat)
T2 sequence (P52594 1-562): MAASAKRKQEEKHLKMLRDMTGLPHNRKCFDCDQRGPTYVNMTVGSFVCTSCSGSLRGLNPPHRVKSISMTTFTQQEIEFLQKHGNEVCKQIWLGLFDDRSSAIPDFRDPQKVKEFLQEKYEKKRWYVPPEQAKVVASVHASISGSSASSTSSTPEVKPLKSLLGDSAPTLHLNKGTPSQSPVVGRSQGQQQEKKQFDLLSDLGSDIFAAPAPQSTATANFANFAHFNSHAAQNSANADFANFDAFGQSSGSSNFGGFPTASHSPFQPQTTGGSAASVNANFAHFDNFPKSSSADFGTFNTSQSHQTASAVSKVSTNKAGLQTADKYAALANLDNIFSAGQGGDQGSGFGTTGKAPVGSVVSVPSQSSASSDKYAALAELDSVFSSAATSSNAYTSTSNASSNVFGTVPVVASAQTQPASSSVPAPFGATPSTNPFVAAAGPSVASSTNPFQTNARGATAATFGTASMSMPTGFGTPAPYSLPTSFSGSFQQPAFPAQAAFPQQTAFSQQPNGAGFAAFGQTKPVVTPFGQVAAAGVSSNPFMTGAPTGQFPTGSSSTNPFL
Protocol: as §1, §2, §3, §4

SMILES | isoTOP-ABPP ratio (R) at liganded lysine P23381_K256 [1] | isoTOP-ABPP ratio (R) at liganded lysine P52594_K134 [2] | further results
O=C(Oc1ccc([N+](=O)[O-])cc1[N+](=O)[O-])c1ccc(-c2ccccc2)cc1 [fragment 37, 2,4-Dinitrophenyl [1,1′-biphenyl]-4-carboxylate] | 0.4 | 1.1 | –
O=C(CC12CC3CC(CC(C3)C1)C2)Oc1ccc([N+](=O)[O-])cc1[N+](=O)[O-] [fragment 38, 2,4-Dinitrophenyl 2-(adamantan-1-yl)acetate] | 1.4 | 1.4 | –
O=C(Oc1ccc([N+](=O)[O-])cc1[N+](=O)[O-])c1ccc(Oc2ccccc2)cc1 [fragment 39, 2,4-Dinitrophenyl 4-phenoxybenzoate] | 0.9 | 1.0 | –
O=C(Oc1ccc([N+](=O)[O-])cc1[N+](=O)[O-])c1ccccc1Nc1cccc(C(F)(F)F)c1 [fragment 40, 2,4-Dinitrophenyl 2-((3-(trifluoromethyl)phenyl)amino)benzoate] | 1.1 | 0.8 | –
CC(C)(C)OC(=O)NCCCC(=O)Oc1ccc([N+](=O)[O-])cc1[N+](=O)[O-] [fragment 41, 2,4-Dinitrophenyl 4-((tert-butoxycarbonyl)amino)butanoate] | 0.9 | 20.0 | –
O=C(Oc1ccc([N+](=O)[O-])cc1[N+](=O)[O-])C(c1ccccc1)(c1ccccc1)c1ccccc1 [fragment 42, 2,4-Dinitrophenyl 2,2,2-triphenylacetate] | 1.1 | 1.0 | –
CC(=O)Oc1ccc([N+](=O)[O-])cc1[N+](=O)[O-] [fragment 43, 2,4-Dinitrophenyl acetate] | 1.0 | 4.8 | –
N#Cc1ccc(C(=O)Oc2ccc([N+](=O)[O-])cc2[N+](=O)[O-])cc1 [fragment 44, 2,4-Dinitrophenyl 4-cyanobenzoate] | – | – | isoTOP-ABPP ratio, lysine P23381_K256 ([1]; 50 uM_231_sol_in vitro): 1.1; isoTOP-ABPP ratio, lysine P52594_K134 ([2]; 50 uM_231_sol_in vitro): 1.5
O=C(CCc1ccc2c(c1)OCO2)Oc1ccc([N+](=O)[O-])cc1[N+](=O)[O-] [fragment 45, 2,4-Dinitrophenyl 3-(benzo[d][1,3]dioxol-5-yl)propanoate] | – | – | isoTOP-ABPP ratio, lysine P23381_K256 ([1]; 50 uM_231_sol_in vitro): 1.1; isoTOP-ABPP ratio, lysine P52594_K134 ([2]; 50 uM_231_sol_in vitro): 20.0
O=C(ON1C(=O)CCC1=O)c1cc(C(F)(F)F)cc(C(F)(F)F)c1 [fragment 46, 3,5-Bis(trifluoromethyl)benzoic acid NHS ester] | – | – | isoTOP-ABPP ratio, lysine P23381_K256 ([1]; 50 uM_231_sol_in vitro): 1.6; isoTOP-ABPP ratio, lysine P52594_K134 ([2]; 50 uM_231_sol_in vitro): 1.0
COC(=O)NC(=NC(=O)OCC1c2ccccc2-c2ccccc21)n1cccn1 [fragment 49, N-Methoxycarbonyl-N′-9-fluorenylmethoxycarbonyl-pyrazole-1-carboxamidine] | – | – | isoTOP-ABPP ratio, lysine P23381_K256 ([1]; 100 uM_231_sol_in vitro): 1.0; isoTOP-ABPP ratio, lysine P52594_K134 ([2]; 100 uM_231_sol_in vitro): 0.8
CC(C)(C)OC(=O)N=C(NC(=O)OC(C)(C)C)n1cccn1 [fragment 50, reference compound] | – | – | isoTOP-ABPP ratio, lysine P23381_K256 ([1]; 100 uM_231_sol_in vitro): 1.1; isoTOP-ABPP ratio, lysine P52594_K134 ([2]; 100 uM_231_sol_in vitro): 1.0
